Among the data in PubChem BioAssay (NCI) are TGI and GI50 values, retold here.

Test systems include CCRF-CEM leukemia; HCC-2998 colon; HCT-116 colon; M14 melanoma; MALME-3M melanoma; MDA-MB-231 breast; MOLT-4 leukemia; OVCAR-3 ovarian; SK-OV-3 ovarian; T-47D breast; UO-31 renal; HL-60(TB) leukemia.
What all share (assay): NCI-60 cell line screen, 48 h

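Exposure lasted 48 hours, with cells grown in 96-well plates and compounds tested at five concentrations. Abbreviation: GI50, concentration required for 50% inhibition of growth. TGI: total growth inhibition.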 Where only a bound is given, the exact number is not on record here.

As to `CCOC(=O)c1cc2cc(CSc3ccccc3)ccc2oc1=O`, the TGI in the assay on CCRF-CEM leukemia, in the assay with HCC-2998 colon, in the assay with HCT-116 colon, in the assay with M14 melanoma, with MALME-3M melanoma and in the assay with MDA-MB-231 breast was more than 100 µM each time. The TGI in the assay on MOLT-4 leukemia, with OVCAR-3 ovarian, with SK-OV-3 ovarian, in the assay on T-47D breast and in the assay on UO-31 renal was more than 100 µM in each case.

With `CCCCCC(/C=N/NC(N)=S)C(O)(C(F)(F)F)C(F)(F)F` (stereo not drawn), the TGI with CCRF-CEM leukemia, in the assay on HCC-2998 colon, with HCT-116 colon, with M14 melanoma, in the assay with MALME-3M melanoma and in the assay with MDA-MB-231 breast was more than 10 µM throughout. Also, the TGI in the assay with MOLT-4 leukemia, in the assay on OVCAR-3 ovarian, with SK-OV-3 ovarian and in the assay with T-47D breast was more than 10 µM throughout.

Regarding `CCCN(CCC)C(=O)Cc1c2n(c3ccccc13)Cc1ccccc1-2`, the TGI in the assay with CCRF-CEM leukemia, with HCC-2998 colon, with HCT-116 colon, in the assay with HL-60(TB) leukemia, in the assay on M14 melanoma and in the assay with MALME-3M melanoma was more than 100 µM each time. The TGI in the assay on MOLT-4 leukemia, in the assay on OVCAR-3 ovarian, in the assay on SK-OV-3 ovarian and in the assay with UO-31 renal was more than 100 µM each time.

With `COc1ccc(/C=N/n2c(Cc3ccc(Cl)cc3)n[nH]c2=O)cc1`, the TGI in the assay on CCRF-CEM leukemia is more than 100 µM; in the assay with HCC-2998 colon, more than 100 µM; with HCT-116 colon it was more than 100 µM; with M14 melanoma it was more than 100 µM; in the assay on MDA-MB-231 breast, 26.6 µM; with MOLT-4 leukemia, more than 100 µM. Also, the TGI with OVCAR-3 ovarian, with SK-OV-3 ovarian, in the assay with T-47D breast and with UO-31 renal was more than 100 µM throughout.

As for `Cc1ccc(NC(=S)NNC(=O)c2cc(-c3ccccc3)nc3ccccc23)cc1C`, the TGI in the assay with CCRF-CEM leukemia was determined as 52 µM; in the assay with HCC-2998 colon, 35.2 µM; with HCT-116 colon, 36.9 µM; in the assay with M14 melanoma, 33.8 µM; with MALME-3M melanoma it was 43.6 µM; in the assay on MDA-MB-231 breast it was 57.7 µM. Further, the TGI with MOLT-4 leukemia turned out to be 53.3 µM; with SK-OV-3 ovarian, 32.9 µM; with T-47D breast, 8.41 µM; in the assay with UO-31 renal it was 36.3 µM.

As for `COc1ccccc1/C=C1/Sc2scc(CC(=O)Nc3ccccc3)[n+]2C1=O`, the TGI in the assay on CCRF-CEM leukemia was 51.7 µM; with HCC-2998 colon it was more than 100 µM; with HCT-116 colon it was more than 100 µM; in the assay on HL-60(TB) leukemia it was 47.1 µM; with M14 melanoma it was more than 100 µM; with MDA-MB-231 breast, 70.8 µM. The TGI with MOLT-4 leukemia is 56.2 µM; in the assay on OVCAR-3 ovarian, 43.4 µM; with SK-OV-3 ovarian, 71.7 µM; in the assay on UO-31 renal, 70.7 µM.

Take `Cn1c2c(c3ccccc31)CC(=O)N1CCCCC1C21OCCO1` (stereo not drawn): the TGI in the assay with CCRF-CEM leukemia, in the assay with HCC-2998 colon, with HCT-116 colon, with M14 melanoma, in the assay on MALME-3M melanoma and in the assay on MDA-MB-231 breast was more than 100 µM throughout. Moreover, the TGI in the assay with MOLT-4 leukemia, in the assay with OVCAR-3 ovarian, with SK-OV-3 ovarian, in the assay on T-47D breast and in the assay with UO-31 renal was more than 100 µM in each case.

As to `C=C1CC(CNc2cc(Cl)nc(N)n2)C1`, the TGI with CCRF-CEM leukemia, in the assay with HCC-2998 colon, in the assay on HL-60(TB) leukemia, in the assay on MALME-3M melanoma, with MDA-MB-231 breast and in the assay with MOLT-4 leukemia was more than 100 µM in each case. For the same compound, the TGI in the assay on OVCAR-3 ovarian, in the assay with SK-OV-3 ovarian and in the assay with UO-31 renal was more than 100 µM each time.

Consider `CCOC(=O)c1ccc(Nc2nc3ccc(C(F)(F)F)cc3nc2-c2ccccc2)cc1`, for which the TGI with CCRF-CEM leukemia, in the assay on HCC-2998 colon, with HCT-116 colon, in the assay on HL-60(TB) leukemia, in the assay on M14 melanoma and with MALME-3M melanoma was more than 100 µM each time. Besides, the TGI in the assay with MOLT-4 leukemia is more than 100 µM; in the assay on OVCAR-3 ovarian, more than 100 µM; in the assay on T-47D breast, 87.1 µM; with UO-31 renal, more than 100 µM.

Take `CCOC(=O)c1c(NC(=O)c2ccccc2)sc2c1CCC2`: the TGI with CCRF-CEM leukemia, in the assay with HCT-116 colon, with HL-60(TB) leukemia, in the assay on M14 melanoma, in the assay with MDA-MB-231 breast and with MOLT-4 leukemia was more than 100 µM each time. Moreover, the TGI in the assay on OVCAR-3 ovarian, in the assay with T-47D breast and with UO-31 renal was more than 100 µM each time.

Take `C[C@@H]1CCN(C(=O)CC#N)C[C@@H]1N(C)c1ncnc2[nH]ccc12`: the GI50 in the assay on HCC-2998 colon is more than 100 µM; with MALME-3M melanoma it was 82.5 µM; in the assay on OVCAR-3 ovarian it was more than 100 µM; with SK-OV-3 ovarian, 90.9 µM; with T-47D breast, more than 100 µM; in the assay on UO-31 renal it was 31.3 µM. In addition, the TGI in the assay on HCC-2998 colon, in the assay on MALME-3M melanoma, with OVCAR-3 ovarian, in the assay on SK-OV-3 ovarian, with T-47D breast and in the assay on UO-31 renal was more than 100 µM throughout.

For `Cc1ccc(S(=O)(=O)OCC23CCC(C4CC42)C2CC23)cc1` (stereo not drawn), the TGI in the assay on CCRF-CEM leukemia was more than 100 µM; with HCC-2998 colon, more than 100 µM; in the assay on HCT-116 colon it was more than 100 µM; with HL-60(TB) leukemia it was 37.8 µM; in the assay with M14 melanoma it was more than 100 µM; in the assay with MALME-3M melanoma it was more than 100 µM. For the same compound, the TGI in the assay with MOLT-4 leukemia, with OVCAR-3 ovarian, in the assay with SK-OV-3 ovarian and with UO-31 renal was more than 100 µM each time.

As to `CSCCCNC(=O)c1csc([C@@H](CSC)NC(=O)CCNC(=O)[C@@H](NC(=O)OCC(Br)(Br)Br)C(C)O)n1` (stereo partly drawn), the TGI in the assay with CCRF-CEM leukemia, with HCC-2998 colon, in the assay with HCT-116 colon, in the assay on HL-60(TB) leukemia, in the assay on M14 melanoma and in the assay with MALME-3M melanoma was more than 100 µM throughout. The TGI in the assay with MDA-MB-231 breast, in the assay on MOLT-4 leukemia, in the assay on OVCAR-3 ovarian, in the assay with SK-OV-3 ovarian and in the assay with UO-31 renal was more than 100 µM throughout.
